Test results taken from US20230233617A1, “METHODS FOR DIFFERENTIATING STEM CELLS INTO DOPAMINERGIC PROGENITOR CELLS” (JZ CELL TECHNOLOGIES AB, priority 2020, published 2023).

What was measured:
hPSC-derived NSCs = experiment: Regional identity of hPSC-derived NSCs at 9 DDC after RA pulse in dSMADi conditions; format: cell-based, human
Experimental: (§1) Cells were fixed for 12 min at room temperature (RT) in 4% paraformaldehyde in PBS, rinsed 3 times in PBST (PBS with 0.1% Triton-X100), and blocked for 1 hour at RT with blocking solution (3% FCS/0.1% Triton-X100 in PBS). Cells were then incubated with primary antibodies overnight at 4° C., followed by incubation with fluorophore-conjugated secondary antibodies for 1 hour at RT. Both primary and fluorophore-conjugated secondary antibodies were diluted in blocking solution. Primary antibodies used are listed in Supplementary Table 1. Appropriate Alexa (488, 555, 647)-conjugated secondary antibodies (Molecular Probes) were used.

β-catenin = experiment: β-CATENIN nuclear levels in cultures at 2 DDC; format: cell-based, human; details: dSMADi+SAG
Text: FIG. 2: Specification of NSC with ventral midbrain identity using RA and SHH signaling. (a) Schematic of hPSCs differentiation with timeline of treatment with RA and activator of SHH signaling (SAG) (top). Immunocytochemistry for indicated markers at 9 DDC in cultures differentiated in dSMADi+SAG-condition and pulsed with RA for 1-, 2- or 4-days (bottom). (b) Relative gene expression (FPKM) of indicated genes in 9 DDC cultures differentiated in dSMADi+SAG-conditions and treated with RA for the indicated time. (c) Heatmap and hierarchical clustering of differentially expressed genes of 9 DDC cultures differentiated in dSMADi+SAG-condition and treated with RA for the indicated time. (d) Schematic of gene expression profiles defining distinct ventral progenitors in the diencephalon (Di), midbrain (MB) and hindbrain (HB) positions. (e) Expression of genes associated with the indicated regional progenitors at 14 DDC in cultures differentiated in dSMADi+SAG+RA^2D condition. (f) Immunocytochemistry for β-CATENIN (left) and boxplots of β-CATENIN nuclear levels (right) in cultures at 2 DDC differentiated in dSMADi+SAG-condition (control) and treated with RA or CHIR99021. Boxplot, whiskers define 5th and 95th percentile. Asterisks, Student t test; **p<0.01, ***p<0.001. (g) Immunocytochemistry for the indicated markers in cultures at 14 DDC differentiated in dSMADi+SAG+RA^2D condition. […]

CYP26A1 = CYP26A1 expression in hPSC cultures; format: cell-based, human; details: 50-1,000 nM RA, dSMADi
Experimental: (d) Effect of RA concentration (50, 100, 300, 500 and 1,000 nM RA) on CYP26A1 expression in 1 DDC cultures differentiated in dSMADi-condition. (e) Temporal expression profile of CYP26A1 in cultures differentiated in dSMADi and pulsed with no RA or 300, 500 or 1,000 nM of RA for 2 days. […] (g) Relative gene expression of indicated genes in 9 DDC cultures differentiated in RA^1D+SAG condition and in the presence of different concentrations of the CYP26 inhibitor R115866. […] (c-e) values, mean±S.D.
Total RNA was isolated using Quick-RNA Mini Prep Plus kit (Zymo Research). cDNA was prepared using Maxima First Strand cDNA synthesis kit (Thermo Fisher Scientific). Quantitative Real-Time PCR was performed in a 7500 Fast Real Time PCR system thermal cycler using Fast SYBR Green PCR Master Mix (Applied Biosystems). Analysis of gene expression was performed using the 2-ΔΔCt method, where relative gene expression was normalized to GAPDH transcript levels.

[1] = test system: hPSC-derived ventral midbrain dopaminergic progenitors; experiment: Specification of caudal midbrain identity (EN1 immunocytochemistry); format: cell-based, human; details: RA^2D+SAG
Experimental: (a) (a) Immunocytochemical analysis of ventral MB progenitor identities at 14 DDC. […] Nuclei of cells visualized with DAPI staining. (b) Immunocytochemistry of dopaminergic neuron marker TH and caudal midbrain marker EN1 expression in 40 DDC cultures differentiated in indicated conditions.
as §1
Mechanisms underlying specification of midbrain dopamine neuron subtypes remains poorly resolved, but is likely to involve sub-patterning of ventral midbrain dopaminergic progenitors along the mediolateral and rostro-caudal axes of the midbrain (Brignani, S, and Pasterkamp, R. J., Front. Neuroanat. 11, 1-18 (2017)). WNT1 signaling emanating from the isthmic organizer at the midbrain-hindbrain boundary establish polarity of midbrain progenitors along the rostro-caudal axis by inducing a caudal^HIGH-to-rostral^LOW expression gradient of the homeodomain proteins EN1 and EN2 (Wurst, W. and Bally-Cuif, L. Nat. Rev. Neuroscience 2, 99-108 (2001)).

CYP26 = details: cited from earlier work

CC1=C(/C=C/C(C)=C/C=C/C(C)=C/C(=O)O)C(C)(C)CCC1 [RA, all-trans retinoic acid]
regional identity of NSCs (hPSC-derived NSCs; 200 nM RA for 1 day (RA^1D)): FB-like character | regional identity of NSCs (hPSC-derived NSCs; 200 nM RA for 2 days (RA^2D)): FOXG1^−/OTX2^+/HOXA2^− MB-like character | regional identity of NSCs (hPSC-derived NSCs; 200 nM RA for 3 days (RA^3D)): FOXG1^−/OTX2^−/HOXA2^+/HOXB4^− rostral HB | regional identity of NSCs (hPSC-derived NSCs; 200 nM RA for 4 days (RA^4D)): FOXG1^−/OTX2^−/HOXA2^+/HOXB4^+ caudal HB | β-catenin in nuclei (β-catenin): no accumulation of β-catenin in nuclei | CYP26A1 expression (CYP26A1): concentration-dependent activation and adaptive temporal expression of CYP26A1 | identity of ventral midbrain progenitors (EN1) ([1]; 14DDC): LMX1A^+/OTX2^+/EN1^− identity | EN1 expression in TH+ dopamine neurons ([1]; 40DDC): a small proportion of TH^+ dopamine neurons expressed EN1 | susceptibility to CYP26-mediated oxidation (CYP26): substrates for CYP26-mediated oxidation
